# pIC50: −log10 of the molar value. Activity calls are given as the source filed them. No cut-off for these calls is given here.
# Legend:
# Escherichia coli [1] = experiment: Inhibition of quorum sensing in Escherichia coli JM109 harboring pSB1075 assessed as suppression of LasR-mediated 3-oxo-C12-HSL signaling at 10 to 1000 uM after 6.5 hrs by reporter gene assay
# HT-29 = experiment: Cytotoxicity against human HT-29 cells after 48 hrs MTT assay; type: functional, cell-based; conditions: HT-29, 48 h
# Escherichia coli [2] = experiment: Antibacterial activity against Escherichia coli JM109 harboring pSB1075 assessed as cell density at 10 to 1000 uM after 6.5 hrs
Structure (SMILES),Activity (Escherichia coli [1]),pIC50 (HT-29),Activity (Escherichia coli [2])
CCCCCCC[C@@H](C/C=C/CCC(=O)NC/C(=C/Cl)[C@]12O[C@H]1[C@@H](O)CCC2=O)OC [MALYNGAMIDE C],Active,5.28,inactive
CCCCCCC[C@@H](C/C=C/CCC(=O)NC/C(=C/Cl)[C@]12O[C@H]1[C@H](O)CCC2=O)OC,Active,4.81,inactive

# — ChEMBL document CHEMBL1155390, “Isolation and biological evaluation of 8-epi-malyngamide C from the Floridian marine cyanobacterium Lyngbya majuscula” (J Nat Prod, 2010)
